The text below walks through data of patent US10034886B2, “GLP-1 receptor modulators” (Celgene International II SÀRL, priority 2014, dated 2018).

pEC50: −log10 of the molar value. Some results are limits rather than exact numbers.

T1 sequence (P43220 24-463): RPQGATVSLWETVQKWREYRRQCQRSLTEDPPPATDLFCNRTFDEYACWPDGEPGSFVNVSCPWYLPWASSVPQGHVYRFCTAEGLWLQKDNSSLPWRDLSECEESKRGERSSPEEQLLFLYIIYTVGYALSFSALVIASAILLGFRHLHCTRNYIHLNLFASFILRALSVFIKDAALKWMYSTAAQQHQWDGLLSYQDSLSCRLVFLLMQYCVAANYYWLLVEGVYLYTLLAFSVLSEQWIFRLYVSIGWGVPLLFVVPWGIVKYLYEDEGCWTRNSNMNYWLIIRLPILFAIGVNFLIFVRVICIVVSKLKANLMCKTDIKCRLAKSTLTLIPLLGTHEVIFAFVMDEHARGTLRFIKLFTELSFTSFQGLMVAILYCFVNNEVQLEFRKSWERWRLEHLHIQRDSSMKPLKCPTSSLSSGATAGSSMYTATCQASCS
T1 sequence (P01275 100-127 partner limits assumed): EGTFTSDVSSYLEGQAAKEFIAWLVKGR

This experiment has as its target T1, GLP-1R (Homo sapiens, UniProt P43220).
T1 construct: host or cells: GLP-1R CRE-bla CHO-K1 cells
Nature of the experiment: EC20 GLP-1(9-36) PAM cAMP assay: dose response of compound in the presence of fixed concentration of GLP-1(9-36). In kind it is cell-based. The following applies: dose response of compound in presence of fixed concentration of GLP-1(9-36), GLP-1R CRE-bla CHO-K1 cells, read-out: EC20 GLP-1(9-36) PAM EC50. The method in brief:
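GLP-1R CRE-bla CHO-K1 cells treated 30 min at 37 °C with 12-point compound dose response plus fixed EC20 GLP-1(9-36), with IBMX, in HBSS/HEPES/0.1% BSA pH 7.4. Total cAMP measured by luminescent detection against standard curve; EC50 and Emax from non-linear regression.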
With `CCCCCCCOc1ccc(-c2cnc(-c3ccc(C[C@H](NC(=O)c4ccc(C(C)(C)C)s4)C(=O)N[C@@H](CC(=O)N(C)CCN)C(=O)O)cc3)nc2)cc1` [Compound 519], the pEC50 (as a rule, the EC50 on a negative log10 scale, so that one unit is a factor of ten) is 5.60 to 6.10.

Take `CCCCCCCOc1ccc(-c2cnc(-c3ccc(C[C@H](NC(=O)c4ccc(C(C)(C)C)s4)C(=O)N[C@@H](CC(=O)N(C)CCN(C)C)C(=O)O)cc3)nc2)cc1` [Compound 520]: the pEC50 is 5.60 to 6.10.

Consider `CCCCCCCOc1ccc(-c2cnc(-c3ccc(C[C@H](NC(=O)c4ccc(C(C)(C)C)s4)C(=O)N[C@@H](CC(=O)NCCO)C(=O)O)cc3)nc2)cc1` [Compound 521], for which the pEC50 is greater than 6.10.

As for `CCCCCCCOc1ccc(-c2cnc(-c3ccc(C[C@H](NC(=O)c4ccc(C(C)(C)C)s4)C(=O)N[C@@H](CC(=O)Nc4nnn[nH]4)C(=O)O)cc3)nc2)cc1` [Compound 522], the pEC50 is 5.60 to 6.10.

For the molecule `CCCCCCCOc1ccc(-c2cnc(-c3ccc(C[C@H](NC(=O)c4ccc(C(C)(C)C)s4)C(=O)N[C@@H](CC(=O)NS(C)(=O)=O)C(=O)O)cc3)nc2)cc1` [Compound 523], the negative-log EC50 (pEC50) is greater than 6.10.

For `CCCCCCCOc1ccc(-c2cnc(-c3ccc(C[C@H](NC(=O)c4ccc(C(C)(C)C)s4)C(=O)N[C@@H](CC(=O)OCc4ccccc4)C(=O)O)cc3)nc2)cc1` [Compound 524, (S)-4-(benzyloxy)-2-((S)-2-(5-(tert-butyl)thiophene-2-carboxamido)-3-(4-(5-(4-(heptyloxy)phenyl)pyrimidin-2-yl)phenyl)propanamido)-4-oxobutanoic acid], the pEC50 is greater than 6.10.

In the case of `CCCCCCCOc1ccc(-c2cnc(-c3ccc(C[C@H](NC(=O)c4ccc(C(C)(C)C)s4)C(=O)N[C@@H](CC(=O)O)C(N)=O)cc3)nc2)cc1` [Compound 525], the negative-log EC50 (pEC50) was greater than 6.10.

For `CCCCCCCOc1ccc(-c2cnc(-c3ccc(C[C@H](NC(=O)c4ccc(C(C)(C)C)s4)C(=O)N[C@@H](CC(=O)O)C(=O)NC)cc3)nc2)cc1` [Compound 526], the pEC50 is greater than 6.10.

In the case of `CCCCCCCOc1ccc(-c2cnc(-c3ccc(C[C@H](NC(=O)c4ccc(C(C)(C)C)s4)C(=O)N[C@@H](CC(=O)O)C(=O)N(C)C)cc3)nc2)cc1` [Compound 527], the pEC50 was greater than 6.10.

Consider `CCCCCCCOc1ccc(-c2cnc(-c3ccc(C[C@H](NC(=O)c4ccc(C(C)(C)C)s4)C(=O)N[C@@H](CC(=O)O)C(=O)N4CCCC4)cc3)nc2)cc1` [Compound 528], for which the pEC50 was greater than 6.10.

As for `CCCCCCCOc1ccc(-c2cnc(-c3ccc(C[C@H](NC(=O)c4ccc(C(C)(C)C)s4)C(=O)N[C@@H](CC(=O)O)C(=O)N4CCCCC4)cc3)nc2)cc1` [Compound 529], the negative-log EC50 (pEC50) was greater than 6.10.

As for `CCCCCCCOc1ccc(-c2cnc(-c3ccc(C[C@H](NC(=O)c4ccc(C(C)(C)C)s4)C(=O)N[C@@H](CC(=O)O)C(=O)NCC(N)=O)cc3)nc2)cc1` [Compound 530], the pEC50 was greater than 6.10.

In the case of `CCCCCCCOc1ccc(-c2cnc(-c3ccc(C[C@H](NC(=O)c4ccc(C(C)(C)C)s4)C(=O)N[C@@H](CC(=O)O)C(=O)N(C)CCN(C)C)cc3)nc2)cc1` [Compound 531], the negative logarithm of the EC50 (pEC50) was 5.60 to 6.10.

With `CCCCCCCOc1ccc(-c2cnc(-c3ccc(C[C@H](NC(=O)c4ccc(C(C)(C)C)s4)C(=O)N[C@@H](CC(=O)O)C(=O)NCCOC)cc3)nc2)cc1` [Compound 532], the pEC50 was greater than 6.10.

Consider `CCCCCCCOc1ccc(-c2cnc(-c3ccc(C[C@H](NC(=O)c4ccc(C(C)(C)C)s4)C(=O)N[C@@H](CC(=O)O)C(=O)N4CCOCC4)cc3)nc2)cc1` [Compound 533], for which the pEC50 is greater than 6.10.

Turning to `CCCCCCCOc1ccc(-c2cnc(-c3ccc(C[C@H](NC(=O)c4ccc(C(C)(C)C)s4)C(=O)N[C@@H](CC(=O)O)C(=O)N4CCNCC4)cc3)nc2)cc1` [Compound 534], the pEC50 was 5.60 to 6.10.

On to `CCCCCCCOc1ccc(-c2cnc(-c3ccc(C[C@H](NC(=O)c4ccc(C(C)(C)C)s4)C(=O)NC4CCCC(C(=O)O)C4)cc3)nc2)cc1` (stereo partly shown) [Compound 535], for which the pEC50 is 5.00 to 5.30.

For the molecule `CCCCCCCOc1ccc(-c2cnc(-c3ccc(C[C@H](NC(=O)c4ccc(C(C)(C)C)cc4)C(=O)NC(C(=O)O)c4nc(C)oc4C)cc3)nc2)cc1` (stereo partly shown) [Compound 536], the negative logarithm of the EC50 (pEC50) was 5.60 to 6.10.

For the molecule `CCCCCCCOc1ccc(-c2cnc(-c3ccc(C[C@H](NC(=O)c4ccc(C(C)(C)C)cc4)C(=O)NC(C)CC(=O)O)cc3)nc2)cc1` (stereo partly shown) [Compound 537], the pEC50 was 5.00 to 5.30.

Take `CCCCCCCOc1ccc(-c2cnc(-c3ccc(C[C@H](NC(=O)c4ccc(C(C)(C)C)cc4)C(=O)NC(CC(=O)O)c4cccc(O)c4)cc3)nc2)cc1` (stereo partly shown) [Compound 538]: the pEC50 is 5.00 to 5.30.

As for `CCCCCCCOc1ccc(-c2cnc(-c3ccc(C[C@H](NC(=O)c4ccc(C(C)(C)C)cc4)C(=O)NC(CC(=O)O)c4ccccc4)cc3)nc2)cc1` (stereo partly shown) [Compound 539], the pEC50 is 5.00 to 5.30.

For `CCCCCCCOc1ccc(-c2cnc(-c3ccc(C[C@H](NC(=O)c4ccc(C(C)(C)C)cc4)C(=O)NC(C(=O)O)C4CCOCC4)cc3)nc2)cc1` (stereo partly shown) [Compound 540], the pEC50 is greater than 6.10.

With `CCCCCCCOc1ccc(-c2cnc(-c3ccc(C[C@H](NC(=O)c4ccc(C(C)(C)C)cc4)C(=O)NC(Cc4cccnc4)C(=O)O)cc3)nc2)cc1` (stereo partly shown) [Compound 541], the pEC50 is 5.60 to 6.10.

Consider `CCCCCCCOc1ccc(-c2cnc(-c3ccc(C[C@H](NC(=O)c4ccc(C(C)(C)C)cc4)C(=O)N[C@@H](Cc4ccccn4)C(=O)O)cc3)nc2)cc1` [Compound 542], for which the pEC50 is greater than 6.10.

As for `CCCCCCCOc1ccc(-c2cnc(-c3ccc(C[C@H](NC(=O)c4ccc(C(C)(C)C)cc4)C(=O)NC(C(=O)O)c4ccc(OC)cc4)cc3)nc2)cc1` (stereo partly shown) [Compound 543], the negative logarithm of the EC50 (pEC50) was greater than 6.10.

As for `CCCCCCCOc1ccc(-c2cnc(-c3ccc(C[C@H](NC(=O)c4ccc(C(C)(C)C)cc4)C(=O)NC(Cc4cscn4)C(=O)O)cc3)nc2)cc1` (stereo partly shown) [Compound 544], the pEC50 is greater than 6.10.

Regarding `CCCCCCCOc1ccc(-c2cnc(-c3ccc(C[C@H](NC(=O)c4ccc(C(C)(C)C)cc4)C(=O)NC(C(=O)O)c4cccc(C(F)(F)F)c4)cc3)nc2)cc1` (stereo partly shown) [Compound 545], the negative logarithm of the EC50 (pEC50) is greater than 6.10.

`CCCCCCCOc1ccc(-c2cnc(-c3ccc(C[C@H](NC(=O)c4ccc(C(C)(C)C)cc4)C(=O)N[C@H](C(=O)O)C(C)(C)C)cc3)nc2)cc1` [Compound 546]: the pEC50 was 5.60 to 6.10.

Turning to `CCCCCCCOc1ccc(-c2cnc(-c3ccc(C[C@H](NC(=O)c4ccc(C(C)(C)C)cc4)C(=O)NC(CCCC)C(=O)O)cc3)nc2)cc1` (stereo partly shown) [Compound 547], the negative-log EC50 (pEC50) is 5.60 to 6.10.

With `CCCCCCCOc1ccc(-c2cnc(-c3ccc(C[C@H](NC(=O)c4ccc(C(C)(C)C)cc4)C(=O)NC(CC)C(=O)O)cc3)nc2)cc1` (stereo partly shown) [Compound 548], the negative-log EC50 (pEC50) is greater than 6.10.

Consider `CCCCCCCOc1ccc(-c2cnc(-c3ccc(C[C@H](NC(=O)c4ccc(C(C)(C)C)cc4)C(=O)NC(C(=O)O)c4c(C)n[nH]c4C)cc3)nc2)cc1` (stereo partly shown) [Compound 549], for which the negative-log EC50 (pEC50) was greater than 6.10.

With `CCCCCCCOc1ccc(-c2cnc(-c3ccc(C[C@H](NC(=O)c4ccc(C(C)(C)C)cc4)C(=O)NC(CO)CC(=O)O)cc3)nc2)cc1` (stereo partly shown) [Compound 550], the negative logarithm of the EC50 (pEC50) is 5.60 to 6.10.

In the case of `CCCCCCCOc1ccc(-c2cnc(-c3ccc(C[C@H](NC(=O)c4ccc(C(C)(C)C)cc4)C(=O)NC(CC(=O)O)C4CCOCC4)cc3)nc2)cc1` (stereo partly shown) [Compound 551], the pEC50 was greater than 6.10.

As to `CCCCCCCOc1ccc(-c2cnc(-c3ccc(C[C@H](NC(=O)c4ccc(C(C)(C)C)cc4)C(=O)NC(CC(=O)O)c4ccc(OC)cc4)cc3)nc2)cc1` (stereo partly shown) [Compound 552], the pEC50 is 5.60 to 6.10.

As for `CCCCCCCOc1ccc(-c2cnc(-c3ccc(C[C@H](NC(=O)c4ccc(C(C)(C)C)cc4)C(=O)NC4(CC(=O)O)CCOCC4)cc3)nc2)cc1` [Compound 553], the negative logarithm of the EC50 (pEC50) is 5.60 to 6.10.

Turning to `CCCCCCCOc1ccc(-c2cnc(-c3ccc(C[C@H](NC(=O)c4ccc(C(C)(C)C)cc4)C(=O)NCC(O)C(=O)O)cc3)nc2)cc1` (stereo partly shown) [Compound 554], the negative logarithm of the EC50 (pEC50) was greater than 6.10.

For the molecule `CCCCCCCOc1ccc(-c2cnc(-c3ccc(C[C@H](NC(=O)c4ccc(C(C)(C)C)cc4)C(=O)NCC(C(=O)O)C4CCOCC4)cc3)nc2)cc1` (stereo partly shown) [Compound 555], the pEC50 is 5.30 to 5.60.

In the case of `CCCCCCCOc1ccc(-c2cnc(-c3ccc(C[C@H](NC(=O)c4ccc(C(C)(C)C)cc4)C(=O)NCC(C(=O)O)c4ccccc4)cc3)nc2)cc1` (stereo partly shown) [Compound 556], the pEC50 was greater than 6.10.

Regarding `CCCCCCCOc1ccc(-c2cnc(-c3ccc(C[C@H](NC(=O)c4ccc(C(C)(C)C)cc4)C(=O)NCC(Cc4cccnc4)C(=O)O)cc3)nc2)cc1` (stereo partly shown) [Compound 557], the pEC50 was greater than 6.10.

Regarding `CCCCCCCOc1ccc(-c2cnc(-c3ccc(C[C@H](NC(=O)c4ccc(C(C)(C)C)cc4)C(=O)NCC(Cc4ccc(O)cc4)C(=O)O)cc3)nc2)cc1` (stereo partly shown) [Compound 558], the negative-log EC50 (pEC50) was greater than 6.10.

With `CCCCCCCOc1ccc(-c2cnc(-c3ccc(C[C@H](NC(=O)c4ccc(C(C)(C)C)cc4)C(=O)NCC(CC4CCOCC4)C(=O)O)cc3)nc2)cc1` (stereo partly shown) [Compound 559], the pEC50 was 5.00 to 5.30.

`CCCCCCCOc1ccc(-c2cnc(-c3ccc(C[C@H](NC(=O)c4ccc(C(C)(C)C)cc4)C(=O)NCC(CC4CCOC4)C(=O)O)cc3)nc2)cc1` (stereo partly shown) [Compound 560]: the negative-log EC50 (pEC50) is 5.60 to 6.10.

Turning to `CCCCCCCOc1ccc(-c2cnc(-c3ccc(C[C@H](NC(=O)c4ccc(C(C)(C)C)cc4)C(=O)NC(Cc4ccccc4)C(=O)O)cc3)nc2)cc1` (stereo partly shown) [Compound 561], the pEC50 is greater than 6.10.

Take `CCCCCCCOc1ccc(-c2cnc(-c3ccc(C[C@H](NC(=O)c4ccc(C(C)(C)C)cc4)C(=O)NC(CCC)C(=O)O)cc3)nc2)cc1` (stereo partly shown) [Compound 562]: the pEC50 was greater than 6.10.

As for `CCCCCCCOc1ccc(-c2cnc(-c3ccc(C[C@H](NC(=O)c4ccc(C(C)(C)C)cc4)C(=O)N4CC=CC4C(=O)O)cc3)nc2)cc1` (stereo partly shown) [Compound 563], the negative-log EC50 (pEC50) was greater than 6.10.

Take `CCCCCCCOc1ccc(-c2cnc(-c3ccc(C[C@H](NC(=O)c4ccc(C(C)(C)C)cc4)C(=O)NC(Cc4ccc(Cl)cc4)C(=O)O)cc3)nc2)cc1` (stereo partly shown) [Compound 564]: the pEC50 is 5.60 to 6.10.
